From patent US11285180B2, “Methods of enhancing the potency of incretin-based drugs in subjects in need thereof” (INSERM (INSTITUT NATIONAL DE LA SANTE ET DE LA RECHERCHE …, priority 2016, dated 2022)

Key:
[1] = test system: GLP-1-induced insulin secretion; test: In vivo GLP-1 stimulated insulin secretion (i.p. GLP-1, then i.v. glucose challenge); parameters: species or system mice
Protocol: (§1) To evaluate GLP-1 sensitivity three GLP-1 regulated parameters were quantified: insulin secretion, gastric emptying, and food intake. To prevent from the degradation of exogenous GLP-1 a DPP4 inhibitor (400 μg/mouse sitagliptin) was given orally 30 min before the GLP-1 challenge.
Since GLP-1 insulinotropic effect is glucose dependent we first assessed in vivo GLP-1 stimulated insulin secretion in hyperglycemic conditions. The mice were first fasted for 6 h before the GLP-1 and glucose challenges. Active GLP-17-36 (BACHEM, Switzerland) was then administered intraperitoneally at different doses (0, 2.2, 7, 20, 63 nmol/kg, diluted in distilled water) 5 min before the glucose challenge. In some sets of experiments a single active dose of 7 nmol/kg was tested. To induce hyperglycemic conditions a retrorbital i.v. glucose (1 g/kg) injection was realised. This procedure avoids the confounding effect of the oral glucose-induced gut-secreted GLP-1. Blood (30 μl) was collected from the tail vein 15 min after glucose challenge. Plasma insulin concentration was determined.
The dose-response curve was calculated by curve interpolation with 4-Parameter Logistic (4PL) sigmoidal model using GraphPad Prism version 6.00 for Mac (GraphPad Software, San Diego, Calif., USA; www.graphpad.com) and the ECso calculated.
(§2) Thirty minutes before all 3 GLP-1 challenge procedures, a NO synthase (NOS) inhibitor (L-NAME, Abcam) was administered i.p. at doses of 0, 50, 100, 200 μg/kg. In a different set of mice, a NO donor (L-Arginine, 1 g/kg, Sigma-Aldrich) was administered orally in the presence or absence of the GLP-1r antagonist, Exendin 9 (1 nmol/mice, 100 μL, i.p. injection, Bachem). To study the chronic effect of L-arginine in GLP-1 sensitivity, the molecule (0.5 g/kg, 300 μL, lgavage/day) was administered for one week.

gastric emptying = test: GLP-1 regulated gastric emptying (oral acetaminophen, plasma acetaminophen); assay type: in vivo, mice
Protocol: as §1
For gastric emptying the glucose challenge was replaced by an oral administration of acetaminophen (SIGMA-Aldrich, […]). The plasma acetaminophen concentrations were assessed by colorimetric-based assay (SEKISUI diagnostics, Canada) in the plasma from tail blood during 15 min.
as §2

insulin secretion = test: Oral glucose-induced insulin secretion after oral NO donor; assay type: in vivo, mice
Protocol: To identify oral glucose-induced insulin and GLP-1 secretions, all sets of mice were gavaged with glucose (2 g/kg). After 15 min, 30 μl of blood from the tip of the tail vein were sampled to assess plasma insulin concentration. 300 μl of portal vein blood were collected following an intravenous (i.v.) administration of a Ketamin (10 mg/kg)/Xylasin (1 mg/kg), to ensure an immediate anesthesia of the mice. This procedure allows performing portal vein blood sampling since it dramatically minimizes the impact of anesthesia on blood parameters. In addition, to prevent from the in vivo degradation of GLP-1 by DPP4, a DPP4 inhibitor (400 μg/mouse sitagliptin, MSD Rahway, N.J.) was administered orally 30 min before the oral gavage with glucose. Eventually, the portal blood was collected in the presence of protease inhibitors diprotin A (1 mM), aprotinin (0.2 μM) and EDTA (1 mM). Plasma hormones were assessed by ELISA (insulin, Mercodia; active GLP-17-36, Alpco). A GLP-1 resistance index for each mice was calculated from glucose, insulin and GLP-1 concentrations 15 min after the oral glucose load. Since the insulinotropic activity of GLP-1 depends upon the glycemic level we set the following equation: Glucose x GLP-1 concentrations/insulin concentration. In some experiments, distal ileum and left nodose ganglion were harvested from mice.
as §2

[2] = test system: meal-induced insulin secretion; conditions: administered orally; healthy, type II diabetic patients, and diabetic mice; cited from earlier work
food intake = test: GLP-1 regulated food intake (30 min after 16-hour fast); assay type: in vivo, mice
Protocol: as §1
Food intake was recorded for 30 min following a 16-hour period of fast.
as §2

distal ileum segment = test: Ex vivo ileal real-time NO measurement; parameters: species or system mice
Protocol: The distal ileum segment from fed mice were washed in Krebs-Ringer bicarbonate/glucose buffer (pH 7.4) in an atmosphere containing 95% O2—5% CO2 and then immersed in Eppendorf tubes containing 400 μL of the same medium. After a 10 min recovery period, the spontaneous NO release in response to 10 μL of Krebs-Ringer solution (control), GLP-1 (150 nM) and/or Exendin 9 (375 nM) was measured at 37° C. for 10 min using a NO-specific amperometric probe (ISO-NOPF, […], 5 mm length, World Precision Instruments, Aston Stevenage, UK) implanted directly in the ileum. Data are expressed (Fournel et al., 2015).

[3] = test system: cFos positive cells in the brain stem (NTS-DMNX); test: c-FOS immunostaining in the brain stem after GLP-1; assay type: in vivo, mice
Protocol: Brain was removed and kept on PFA 4% overnight at 4° C. After washing in cold citrate buffer for 6 h, brain was warmed until boiling, washed in PBS, cooled to 4° C., then immersed in cold sucrose solutions (10% then 30% in PBS). After freezing on dry ice, the brain was stored at −80° C. and cut into 20 μm thick slices (cryostat, Thermo). The slices were washed 3 times with PBS, blocked with PBS, 0.3% Triton X100, 2% donkey serum and incubated with the c-fos antibody diluted in the same solution ( 1/10000, Santa Cruz) overnight at RT. After 16 h, the brain slices were washed 3 times with PBS and incubated with biotinylated antibody ( 1/2000, Jackson ImmunoResearch) diluted in the PBST solution (PBS, 0.3% Triton X100) for 1 h at RT. Brain slices were washed 3 times in PBS and incubated with the reagent A (avidin) and B (biotinylated enzyme) from Vectastain Elite ABC kit (Vector Laboratories) diluted in the PBST solution, 30 min at RT. Then, brain slices were washed 3 times in PBS and incubated with biotinylated tyramine solution (tyramine and biotin diluted in borate buffer/3% H2O2, pH=8.4), 20 min at RT. […] The fluorescence was analysed as above. We identified the Nucleus Tractus Solitary NTS and dorsal motor nucleus of vagus nerve DMNX area using a mouse brain atlas (Franklin and Paxinos, 1997) and we counted the number of cFOS positive cells/area corresponding to the NTS-DMNX.

primary enteric neurons = test: GLP-1-induced NO production in primary cultures of enteric neurons (DAF-FM); assay type: cell-based, mice
Protocol: The protocol was adapted from Smith and colleagues (Smith et al., 2013). The ileum (last 9 cm) was harvested and kept in ice cold-carbogen bubbled-Krebs solution. The tissue was cut into 3 cm slices and kept on plastic rod. An incision was realized with a forceps where the mesentery was attached. The outer layers containing muscular cells and myenteric neurons (LMMP) were obtained by moving from top to bottom, along the gap. The LMMP were digested with collagenase II (1.3 mg/mL, Worthington) and BSA (0.3 mg/mL) in Krebs solution bubbled with carbogen 30 min in a 37° C. shaking bath. Digested cells were transferred in Hank Balanced salt Solution (HBSS)/trypsin solution (0.05%) 7 min in a 37° C. shaking bath. […]
Primary enteric neurons were grown for 7 days in culture. […] The fluorescence was measured on confocal Zeiss Laser Scanning Microscope LSM-780 equipped with 63×/1.4 NA oil immersion objective and a GaAsP detector with quantum yield of 45% with Black Zen software and analysed with Image J software. A region of interest (ROI) corresponding to identified nNOS positive cells was defined from where the DAF-FM or nNOS fluorescence mean per ROI was measured. The ratio of both values for each ROI was then calculated.

[4] = L-NAME i.p. 30 min before GLP-1 challenge

N=C(N)NCCC[C@H](N)C(=O)O [L-Arginine]
GLP-1-induced insulin secretion (GLP-1 sensitivity) ([1]; HFD diabetic mice, chronic NO-donor treatment (1 week)): enhanced | gastric emptying (gastric emptying; HFD diabetic mice, NO-donor treatment): could also improve | gastric emptying inhibition (gastric emptying; oral NO donor, through the GLP-1r): can induce gastric emptying inhibition | insulin secretion (insulin secretion; HFD GLP-1 resistant diabetic mice, oral and acute administration): improved insulin secretion | insulin secretion after oral glucose challenge (insulin secretion; NCD-fed mice, oral and acute treatment): induced insulin secretion | meal-induced insulin secretion [2]: improves

COC(=O)[C@@H](N)CCCNC(=N)N[N+](=O)[O-] [L-NAME]
effect on GLP-1-induced insulin secretion ([1]; NCD mice, L-NAME i.p. 30 min before GLP-1 challenge): partially reduced | effect on GLP-1-induced gastric emptying inhibition (gastric emptying; [4]): altered | effect on GLP-1-induced food intake inhibition (food intake; [4]): but not GLP-1-induced food intake inhibition

Exendin 9
effect of co-treatment on L-Arginine-increased insulin secretion (insulin secretion; NCD-fed mice, co-treatment with L-Arginine): prevented the effect of GLP-1 | effect on GLP-1 induced NO production (distal ileum segment; ileum segments, Exendin 9 with GLP-1): prevented GLP-1 induced NO production

GLP-1: Active GLP-1 7-36 (BACHEM), insulinotropic hormone, GLP-1 receptor agonist
EC50 of GLP-1-induced insulin secretion (fold change dose-response) ([1]; HC-HFD mice compared to NCD mice): doubled | EC50 of GLP-1-induced insulin secretion (fold change dose-response) ([1]; HFD-fed lean diabetic mice compared to NCD mice): dramatically increased | dose of GLP-1 reaching the maximal insulin secretion ([1]; NCD and HC-HFD-fed mice, GLP-1 i.p., plasma insulin 15 min after i.v. glucose): 7 nmol/kg | GLP-1-induced insulin secretion ([1]; NCD-fed subdiaphragmatic vagotomy (SDVx) mice, GLP-1 7 nmol/kg): reduced | GLP-1-induced insulin secretion ([1]; NOD2, CD14 and TLR4 KO mice compared to wild type controls): dramatically reduced | GLP-1-induced insulin secretion ([1]; germ free mice): prevented | gastric emptying (gastric emptying; NOD2, CD14 and TLR4 KO mice): impaired | GLP-1 effect on gastric emptying (gastric emptying; SDVx-operated NCD-fed mice): induces GLP-1 resistance to gastric emptying | plasma concentrations of acetaminophen after GLP-1 administration (gastric emptying) (gastric emptying; both fat-enriched diet-fed mice (HC-HFD, HFD)): remained elevated | energy intake with increasing doses of GLP-1 (food intake; HFD-fed lean diabetic mice compared to NCD-fed mice): only modestly reduced | food intake (food intake; NOD2, CD14 and TLR4 KO mice): remained unchanged | energy intake after GLP-1 administration (food intake; sham versus SDVx-operated mice): similar | number of cFos positive neurons in response to GLP-1 ([3]; NCD mice, GLP-1 7 nmol/kg): increases | number of cFos positive cells in the brain stem after GLP-1 administration ([3]; germ free mice): could not be increased | GLP-1-induced NO production (primary enteric neurons; enteric neurons from HFD-fed mice versus NCD): dramatically resistant | NO production by enteric neurons stimulated by GLP-1 (primary enteric neurons; enteric neurons from germ free mice): could not be stimulated | GLP-1-induced NO production ex vivo from ileum segments (distal ileum segment; HFD-fed GLP-1 resistant mice): totally blunted | GLP-1-induced NO production ex vivo from ileum segments (distal ileum segment; NCD versus HC-HFD-fed GLP-1 sensitive mice): similar
